The text below walks through data of patent US7300793B2, “Method for preventing the adhesion of particles” (Evotec Technologies GmbH, priority 2001, dated 2007).

The subject of one data set is Jurkat-cells. The data set can be described thus: Cell adherence to polystyrene culture dishes in the presence of various substances, with trypan blue vitality check (Jurkat). How it is done:
(§1) 50 μl of the cell suspension described above were added.
(§2) The samples were incubated for 30 minutes at 37° C. The supernatant with non-adhered cells was removed and replaced by buffer. The adherence was qualitatively evaluated (refer to table 3). The cells in both supernatant and the wells were stained with trypanblue solution (0.2%, SIGMA Aldrich GmbH, Steinheim) in order to examine the vitality of the cells.

In a further data set the test system is U937-cells. Put plainly: Cell adherence to polystyrene culture dishes in the presence of various substances, with trypan blue vitality check (U937). The note with it: for U937 Adherence: 30 minutes at 37° C., polystyrene 24-well plate. As for the experimental part: as §1, §2

For the substance polyvinyl pyrrolidone 15 [PVP 15], in the data set on Jurkat-cells, the “Jurkat Vitality” value is 100%. Also, in the data set with U937-cells, the “U937 Vitality” value stood at 100%.
For polyvinyl alcohol [PVA 30,000–70,000], the “Jurkat Vitality” value with Jurkat-cells turned out to be 97%. Besides, the “U937 Vitality” value in the data set on U937-cells was 98%.
Consider Bovine serum albumin [BSA], for which the “Jurkat Adherence” value in the data set on Jurkat-cells (0.1% in PBS, 30 minutes at 37° C., polystyrene 24-well plate) worked out at 99. Moreover, the “U937 Adherence” value with U937-cells (0.1% in PBS) amounted to 999; in the data set on U937-cells (0.5% in PBS), 99.
Regarding polyethylene glycol 5,000 [PEG 5,000], in the data set on Jurkat-cells, the “Jurkat Vitality” value was 100%. In addition, in the data set with U937-cells, the “U937 Vitality” value came to 100%.
With polyvinyl pyrrolidone 25 [PVP 25], the “Jurkat Vitality” value in the data set on Jurkat-cells was 100%. The “U937 Vitality” value in the data set on U937-cells was 100%.
